The source of these data is patent publication US20100285957A1, “THIAZOLYLOXYPHENYLAMIDINES OR THIADIAZOLYLOXYPHENYLAMIDINES AND THEIR USE AS FUNGICIDES” (Bayer CropScience AG, priority 2007, published 2010).

Each structure is given as a SMILES string. Where two headings read alike, the source gives them in different places.

In one series the test system is Sphaerotheca fuliginea. Nature of the series: Sphaerotheca test (cucumber)/protective. In kind it is in vivo. The settings on record: Podosphaera fuliginea, 168 h, 100 ppm active substance, protective, evaluation 7 days after inoculation, read-out: degree of effectiveness. Here is the method:
Sphaerotheca Test (Cucumber)/Protective [table] To prepare a suitable active substance composition, 1 part by weight of active substance is mixed with the given amounts of solvents and emulsifier and the concentrate is diluted to the desired concentration using water. For the testing of protective effectiveness, young plants are sprayed with the active substance composition in the application rate given. After the spray coating has been dried on, the plants are inoculated with an aqueous suspension of spores of Sphaerotheca fuliginea. The plants are then placed in a greenhouse at approximately 23° C. and a relative humidity of approximately 70%. Evaluation is carried out 7 days after the inoculation. In this connection, 0% means a degree of effectiveness corresponding to that of the control, while a degree of effectiveness of 100% means that no infestation is observed.

A further series deals with Uromyces appendiculatus. Nature of the series: Uromyces test (beans)/protective. In kind it is in vivo. Conditions: 240 h, 100 ppm active substance, protective, evaluation 10 days after inoculation, read-out: degree of effectiveness. Here is the method:
Uromyces Test (Beans)/Protective [table] To prepare a suitable active substance composition, 1 part by weight of active substance is mixed with the given amounts of solvents and emulsifier and the concentrate is diluted to the desired concentration using water. For the testing of protective effectiveness, young plants are sprayed with the active substance composition in the application rate given. After the spray coating has been dried on, the plants are inoculated with an aqueous suspension of the spores of the bean rust pathogen Uromyces appendiculatus and then remain in an incubation chamber at approximately 20° C. and 100% relative humidity for 1 day. The plants are then placed in a greenhouse at approximately 21° C. and a relative humidity of approximately 90%. Evaluation is carried out 10 days after the inoculation. In this connection, 0% means a degree of effectiveness corresponding to that of the control, while a degree of effectiveness of 100% means that no infestation is observed.

The test system of another series is Phakopsora pachyrhizi. Nature of the series: Phakopsora test (soya)/protective. The series is classed as in vivo. Conditions: 264 h, 100 ppm active substance, protective, evaluation 11 days after inoculation, read-out: degree of effectiveness. Here is the method: Phakopsora Test (Soya)/Protective
(§1) To prepare a suitable active substance composition, 1 part by weight of active substance is mixed with the given amounts of solvent and emulsifier and the concentrate is diluted to the desired concentration using water.
For the testing of protective effectiveness, young plants are sprayed with the active substance composition in the application rate given. After the spray coating has been dried on, the plants are inoculated with an aqueous suspension of the spores of Phakopsora pachyrhizi and then remain in an incubation chamber at approximately 20° C. and 80% relative humidity for 1 day.
Evaluation is carried out 11 days after the inoculation. In this connection, 0% means a degree of effectiveness corresponding to that of the control, while a degree of effectiveness of 100% means that no infestation is observed.

The next series relates to Alternaria solani. Nature of the series: Alternaria test (tomato)/protective. In kind it is in vivo. The settings on record: 168 h, 500 ppm active substance, protective, evaluation 7 days after inoculation, read-out: degree of effectiveness. Here is the method: Alternaria Test (Tomato)/Protective [table] To prepare a suitable active substance composition, 1 part by weight of active substance is mixed with the given amounts of solvent and emulsifier and the concentrate is diluted to the desired concentration using water. For the testing of protective effectiveness, young tomato plants are sprayed with the active substance composition in the application rate given. 1 day after the treatment, the plants are inoculated with a suspension of the spores of Alternaria solani and then stand at 100% relative humidity and 20° C. for 24 h. Subsequently, the plants stand at 96% relative humidity and a temperature of 20° C. Evaluation is carried out 7 days after the inoculation. In this connection, 0% means a degree of effectiveness corresponding to that of the control, while a degree of effectiveness of 100% means that no infestation is observed.

A further series relates to Pyrenophora teres. The series can be described thus: Pyrenophora teres test (barley)/protective. The series is classed as in vivo. The settings on record: 500 ppm active substance, protective, evaluation 7-9 days after inoculation, read-out: degree of effectiveness. Here is the method:
Pyrenophora teres Test (Barley)/Protective
as §1
For the testing of protective effectiveness, young barley plants are sprayed with the active substance composition in the application rate given. 1 day after the treatment, the plants are inoculated with an aqueous suspension of the spores of Pyrenophora teres and then remain at 100% relative humidity and 20° C. for 48 h. Subsequently, the plants are placed in a greenhouse at 80% relative humidity and a temperature of 20° C.
Evaluation is carried out 7-9 days after the inoculation. In this connection, 0% means a degree of effectiveness corresponding to that of the control, while a degree of effectiveness of 100% means that no infestation is observed.

In series [1] the test system is Blumeria graminis f.sp. hordei. The series can be described thus: Blumeria graminis test (barley)/protective. The series is classed as in vivo. Conditions: 168 h, 1000 ppm active substance, protective, evaluation 7 days after inoculation, read-out: degree of effectiveness. Here is the method:
Blumeria graminis Test (Barley)/Protective
as §1
For the testing of protective effectiveness, young plants are sprayed with the active substance composition in the application rate given.
After the spray coating has been dried on, the plants are dusted with spores of Blumeria graminis f.sp. hordei.
The plants are placed in a greenhouse at a temperature of approximately 20° C. and a relative humidity of approximately 80%, in order to encourage the development of mildew pustules.
Evaluation is carried out 7 days after the inoculation. In this connection, 0% means a degree of effectiveness corresponding to that of the control, while a degree of effectiveness of 100% means that no infestation is observed.

In series [2] the test system is Puccinia recondita var. tritici. Nature of the series: Puccinia test (wheat)/protective. The settings on record: 240 h, 1000 ppm active substance, protective, evaluation 10 days after inoculation, read-out: degree of effectiveness. In kind it is in vivo. Here is the method:
Puccinia Test (Wheat)/Protective
as §1
For the testing of protective effectiveness, young plants are sprayed with the active substance composition in the application rate given. After the spray coating has been dried on, the plants are sprayed with a suspension of the conidia of Puccinia recondita var. tritici. The plants remain in an incubation chamber at 20° C. and 100% relative humidity for 48 hours.
The plants are then placed in a greenhouse at a temperature of approximately 20° C. and a relative humidity of 80%, in order to encourage the development of rust pustules.
Evaluation is carried out 10 days after the inoculation. In this connection, 0% means a degree of effectiveness corresponding to that of the control, while a degree of effectiveness of 100% means that no infestation is observed.

In the case of `Cc1cc(Oc2nc(C3CC3C)ns2)c(C)cc1N=CN(C)C(C)C` (centres unmarked) [Compound 15, N′-(2,5-Dimethyl-4-{[3-(2-methylcyclopropyl)-1,2,4-thiadiazol-5-yl]oxy}phenyl)-N-methyl-N-(1-methylethyl)imidoformamide], the values for the pest or weed control at 100 ppm in the series with Sphaerotheca fuliginea, in the series on Uromyces appendiculatus and with Phakopsora pachyrhizi were ≥ 70%, ≥ 70% and ≥ 80%, respectively. The pest or weed control at 500 ppm in the series with Alternaria solani and in the series with Pyrenophora teres was ≥ 70% in each case. The pest or weed control at 1000 ppm in series [1] and in series [2] was ≥ 70% in each case. In addition, in “physchem” (pH 2.3), the logP (in general, a log measure of how a compound divides between an organic and an aqueous phase) worked out at 1.74.

Take `CCN(C)C=Nc1cc(C)c(Oc2nc(C3(CC)C(C)C3(Cl)Cl)ns2)cc1C` (centres unmarked) [Compound 27, N′-(4-{[3-(2,2-Dichloro-1-ethyl-3-methylcyclopropyl)-1,2,4-thiadiazol-5-yl]oxy}-2,5-dimethylphenyl)-N-ethyl-N-methylimidoformamide]: the pest or weed control at 100 ppm in the series on Sphaerotheca fuliginea was ≥ 70%; with Uromyces appendiculatus it was ≥ 70%; with Phakopsora pachyrhizi it was ≥ 80%. For the same compound, the pest or weed control at 500 ppm with Pyrenophora teres is ≥ 70%. The same compound yielded a logP in “physchem” (pH 2.3) of 2.21.

For `CCN(C)C=Nc1cc(C)c(Oc2nc(C3(F)CC3)c(Cl)s2)cc1C` [Compound 30, N′-(4-{[5-Chloro-4-(1-fluorocyclopropyl)-1,3-thiazol-2-yl]oxy}-2,5-dimethylphenyl)-N-ethyl-N-methylimidoformamide], the values for the pest or weed control at 100 ppm in the series with Sphaerotheca fuliginea, with Uromyces appendiculatus and in the series on Phakopsora pachyrhizi were ≥ 70%, ≥ 70% and ≥ 80%, respectively. The pest or weed control at 500 ppm in the series with Pyrenophora teres was ≥ 70%. The logP in the series “physchem” worked out at 5.08; in “physchem” (pH 2.3), 1.92.

`Cc1cc(Oc2nc(C3CC3)ns2)c(C)cc1N=CN(C)C(C)C` [Compound 2, N′-{4-[(3-Cyclopropyl-1,2,4-thiadiazol-5-yl)oxy]-2,5-dimethylphenyl}-N-methyl-N-(1-methyl-ethyl)imidoformamide]: the pest or weed control at 100 ppm was ≥ 70% in the series with Sphaerotheca fuliginea, ≥ 70% in the series on Uromyces appendiculatus and ≥ 80% in the series on Phakopsora pachyrhizi. The pest or weed control at 500 ppm in the series with Alternaria solani and with Pyrenophora teres was ≥ 70% each time. The pest or weed control at 1000 ppm in series [1] and in series [2] was ≥ 70% throughout. In “physchem” (pH 2.3), this compound displayed a logP of 1.91.

In the case of `CCN(C)C=Nc1cc(C)c(Oc2nc(C3CC3)ns2)cc1C` [Compound 1, N′-{4-[(3-Cyclopropyl-1,2,4-thiadiazol-5-yl)oxy]-2,5-dimethylphenyl}-N-ethyl-N-methylimidoformamide], the values for the pest or weed control at 100 ppm in the series with Sphaerotheca fuliginea, in the series with Uromyces appendiculatus and in the series on Phakopsora pachyrhizi were ≥ 70%, ≥ 70% and ≥ 80%, respectively. The pest or weed control at 500 ppm in the series with Alternaria solani and in the series with Pyrenophora teres was ≥ 70% in each case. Further, the pest or weed control at 1000 ppm in series [1] and in series [2] was ≥ 70% each time. Moreover, the logP in the series “physchem” (pH 2.3) was 1.59.

Regarding `CCN(C)C=Nc1cc(C)c(Oc2nc(C3(F)CC3)cs2)cc1C` [Compound 29, N-Ethyl-N′-(4-{[4-(1-fluorocyclopropyl)-1,3-thiazol-2-yl]oxy}-2,5-dimethylphenyl)-N-methylimidoformamide], the pest or weed control at 100 ppm was ≥ 70% in the series on Sphaerotheca fuliginea, ≥ 70% in the series with Uromyces appendiculatus and ≥ 80% in the series with Phakopsora pachyrhizi. Moreover, the pest or weed control at 500 ppm with Alternaria solani and with Pyrenophora teres was ≥ 70% each time. Further, the results for the logP in the series “physchem” and in “physchem” (pH 2.3) were 4.38 and 1.58, respectively.

Regarding `CCN(C)C=Nc1cc(C)c(Oc2nc(C3(Cl)CC3)ns2)cc1C` [Compound 12, N′-(4-{[3-(1-Chlorocyclopropyl)-1,2,4-thiadiazol-5-yl]oxy}-2,5-dimethylphenyl)-N-ethyl-N-methylimidoformamide], the pest or weed control at 100 ppm in the series with Sphaerotheca fuliginea is ≥ 70%; in the series on Uromyces appendiculatus, ≥ 70%; with Phakopsora pachyrhizi, ≥ 80%. For the same compound, the pest or weed control at 500 ppm in the series on Pyrenophora teres is ≥ 70%. For the same compound, the pest or weed control at 1000 ppm in series [1] and in series [2] was ≥ 70% throughout. Moreover, the log partition coefficient (logP) in “physchem” (pH 2.3) came out at 1.59.

`Cc1cc(Oc2nc(C3(C)CC3)ns2)c(C)cc1N=CN(C)C(C)C` [Compound 10, N′-(2,5-Dimethyl-4-{[3-(1-methylcyclopropyl)-1,2,4-thiadiazol-5-yl]oxy}phenyl)-N-methyl-N-(1-methylethyl)imidoformamide]: the values for the pest or weed control at 100 ppm in the series on Sphaerotheca fuliginea, in the series on Uromyces appendiculatus and in the series with Phakopsora pachyrhizi were ≥ 70%, ≥ 70% and ≥ 80%, respectively. Also, the pest or weed control at 500 ppm in the series with Pyrenophora teres was ≥ 70%. The pest or weed control at 1000 ppm in series [1] and in series [2] was ≥ 70% throughout. Also, in “physchem” (pH 2.3), the logP came to 2.03.

For the compound `Cc1cc(Oc2nc(C3(Cl)CC3)ns2)c(C)cc1N=CN(C)C(C)C` [Compound 18, N′-(4-{[3-(1-Chlorocyclopropyl)-1,2,4-thiadiazol-5-yl]oxy}-2,5-dimethylphenyl)-N-methyl-N-(1-methylethyl)imidoformamide], the pest or weed control at 100 ppm in the series on Sphaerotheca fuliginea and with Uromyces appendiculatus was ≥ 70% throughout. The pest or weed control at 500 ppm in the series on Alternaria solani and in the series on Pyrenophora teres was ≥ 70% in each case. The pest or weed control at 1000 ppm in series [1] and in series [2] was ≥ 70% throughout. The compound also registered a logP in the series “physchem” (pH 2.3) of 2.01.

Take `Cc1cc(Oc2nc(C3(Cl)CC3)c(Cl)s2)c(C)cc1N=CN(C)C(C)C` [Compound 17, N′-(4-{[5-Chloro-4-(1-chlorocyclopropyl)-1,3-thiazol-2-yl]oxy}-2,5-dimethylphenyl)-N-methyl-N-(1-methylethyl)imidoformamide]: the pest or weed control at 100 ppm in the series on Sphaerotheca fuliginea was ≥ 70%; in the series on Uromyces appendiculatus it was ≥ 70%; in the series on Phakopsora pachyrhizi, ≥ 80%. Further, the pest or weed control at 500 ppm in the series with Pyrenophora teres is ≥ 70%. In addition, the pest or weed control at 1000 ppm in series [1] and in series [2] was ≥ 70% throughout. The results for the logP in “physchem” and in the series “physchem” (pH 2.3) were 5.86 and 2.22, respectively.
